Data: PMC6748952, “Identification, Functional Characterization, and Pharmacological Analysis of Two Sulfakinin Receptors in the Medically-Important Insect Rhodnius prolixus” (Scientific Reports, 2019)
“Also recorded” adds a separate entry of the source. One block for each compound: values may come before it. Where no end group is shown, it is not given here.

How the values were obtained:
[1] = system: Rhopr-SKR-1; assay: Second messenger pathway assay (PLC inhibitor U73122 or EGTA), Rhopr-SKR-1 in HEK293/CNG cells; assay type: cell-based, Rhodnius prolixus; settings: for luminescence response of control agents: cells expressing Rhopr-SKR-1, confirms functional CNG channels (Fig. S4); for EC50: 3 replicates, read-out: EC50, luminescence response; for luminescence response: with 10 μM U73122 (10 minutes incubation)
Method: (§1) To test whether cAMP and/or Ca^2+ are the second messengers for Rhopr-SKR-1 and Rhopr-SKR-2, HEK293/CNG cells were transfected with each receptor, as previously mentioned, then split into cells that were suspended in calcium-free DMEM with the extracellular calcium chelator EGTA (10 μM) or cells treated with the PLC inhibitor U73122 (10 μM) (Sigma Aldrich, Oakville, ON, Canada). […] HEK293/CNG cells with receptors that work via the Ca^2+ pathway would be unable to evoke luminescence in the presence of U73122. The modified CNG channel in HEK293/CNG causes extracellular Ca^2+ to flow into the cell upon an increase in cytoplasmic cAMP levels. Receptors that solely work through the cAMP pathway would be unable to produce a response in calcium-free media with EGTA. Moreover, receptors that work via both Ca^2+ and cAMP would elicit a response in the presence of either U73122 or EGTA in calcium-free media.
(§2) HEK293/CNG cells were used via the same protocol as previously stated. Luminescence was measured in 5-second intervals for a total of 30 seconds. In the first set of experiments, the transfected cells were incubated in 10 μM of U73122 for 10 minutes prior to measuring luminescence in response to the addition of sulfated Rhopr-SK-1 or Rhopr-SK-2. To confirm the viability of the utilized cells, media in 1.5% Triton X-100 served as a positive control. In the second set of experiments, cells were suspended in calcium-free DMEM (Thermo Fisher Scientific, Waltham, MA, USA) with 10 μM of the extracellular calcium chelator EGTA. Here, luminescence was measured in response to sulfated Rhopr-SK-1 or Rhopr-SK-2 in calcium-free DMEM in the presence of EGTA. A batch of cells that was also pre-incubated in calcium-free DMEM with EGTA were then washed, incubated in regular DMEM, and then tested in response to sulfated Rhopr-SK-1 and […]. Forskolin, which is a stimulator of adenylate cyclase, and the cAMP analog dibutyryl cAMP (dbcAMP) were utilized as controls to confirm the expression of functional CNG channels in the HEK293/CNG cells. ATP served as a positive control. GraphPad Prism version 8.00 (https://www.graphpad.com) was used to analyze the bioluminescence results.

[2] = system: Rhopr-SKR-2; assay: Second messenger pathway assay (PLC inhibitor U73122 or EGTA), Rhopr-SKR-2 in HEK293/CNG cells; assay type: cell-based, Rhodnius prolixus; settings: for EC50: 3 replicates, read-out: EC50, luminescence response; for luminescence response: with 10 μM U73122 (10 minutes incubation)
Method: as §1, §2

[3] = system: PLC pathway; settings: HEK293/CNG cell line; cited from earlier work
Method: To test whether cAMP and/or Ca^2+ are the second messengers for Rhopr-SKR-1 and Rhopr-SKR-2, HEK293/CNG cells were transfected with each receptor, as previously mentioned, then split into cells that were suspended in calcium-free DMEM with the extracellular calcium chelator EGTA (10 μM) or cells treated with the PLC inhibitor U73122 (10 μM) (Sigma Aldrich, Oakville, ON, Canada). […] HEK293/CNG cells with receptors that work via the Ca^2+ pathway would be unable to evoke luminescence in the pre ...

[4] = system: Rhopr-SKR-1; assay: Functional receptor assay (aequorin bioluminescence), Rhopr-SKR-1 transiently expressed in HEK293/CNG cells; assay type: cell-based, Rhodnius prolixus; settings: for luminescence response / activation (in words) / EC50: HEK293/CNG, first 5-second interval, 3 replicates; for EC50: aequorin luminescence, coelenterazine h 5 μM, read-out: EC50, luminescence response
Method: (§3) An aequorin luminescence assay was utilized in order to measure Ca^2+ signaling in HEK293/CNG cells stably expressing a modified cyclic nucleotide-gated (CNG) channel. The cells were grown in Dulbecco’s Modified Eagle Medium Nutrient Mixture F12-Ham (DMEM/F-12) (Thermo Fisher Scientific, Waltham, MA, USA), with 1% penicillin/streptomycin, 10% fetal bovine serum (FBS), and 100 μg/mL G418 (Geneticin). The HEK293/CNG cells were consistently grown in vented T75 flasks and inclubated at 37 °C in 5% CO2. After reaching approximately 95% confluency, the mammalian cells were transiently co-transfected with the pIRES2-ZsGreen1 expression vector (containing Rhopr-SKR-1 or Rhopr-SKR-2) and the cytoplasmic luminescent reporter aequorin via X-tremeGENE^TM HP DNA Transfection Reagent (Roche Applied Science, Penzberg, Germany). Transfections were performed at a 2:1 ratio for the transfection reagent to the expression vectors. Cells transiently transfected with empty pIRES2-ZsGreen1 expression vectors served as a negative control. The cells were then incubated at 37 °C in 5% CO2 for 72 hours prior to performing the bioluminescence assay.
(§4) The bioluminescence assay was performed as previously described. At 72 hours post-transfection, the HEK293/CNG cells were harvested from the T75 flasks using a PBS with ethylenediaminetetraacetic acid (EDTA) solution then suspended in a bovine serum albumin (BSA) media (DMEM/F-12 with 1% penicillin/streptomycin and 1% BSA). Prior to the functional assay, the cells were incubated in coelenterazine h (Promega, Madison, WI, USA) to a 5 μM final concentration, and then incubated for 4 hours whilst stirring in the dark. The cells were then diluted 8-fold via BSA media. Rhopr-SK-1 and Rhopr-SK-2 (as well as nonsulfated Rhopr-SK-1) were prepared in BSA media then plated in duplicates on 96-well plates, with 50 μL of the cells then automatically injected into each of these wells via a Perkin Elmer Wallac 1420 Victor2 plate reader (Perkin Elmer, San Diego, CA, USA). The reader was used to measure luminescence response in consecutive five-second intervals (15 seconds in total). An extended Rhopr-FMRFamide (GNDNFMRFamide), tachykinin (Rhopr-TK-2), and Rhopr-Kinin-2 were used as controls to test for specificity. ATP was used as a positive control. HEK293/CNG cells transfected with empty pIRES2-ZsGreen1 vectors served as negative controls.

[5] = system: Rhopr-SKR-2; assay: Functional receptor assay (aequorin bioluminescence), Rhopr-SKR-2 transiently expressed in HEK293/CNG cells; assay type: cell-based, Rhodnius prolixus; settings: for luminescence response / activation (in words) / EC50: HEK293/CNG, first 5-second interval, 3 replicates; for EC50: aequorin luminescence, coelenterazine h 5 μM, read-out: EC50, luminescence response
Method: as §3, §4

[6] = system: HEK293/CNG cells; assay: Negative control: HEK293/CNG cells transfected with empty pIRES2-ZsGreen1 plasmids; assay type: cell-based, human; settings: empty pIRES2-ZsGreen1 (not shown)
Method: as §3, with “Cells transiently transfected with empty pIRES2-ZsGreen1 expression vectors served as a negative control. The cells were then incubated at 37 °C in 5% CO2 for 72 hours prior to performing the bioluminescence assay.” left out
The bioluminescence assay was performed as previously described. […] Rhopr-SK-1 and Rhopr-SK-2 (as well as nonsulfated Rhopr-SK-1) were prepared in BSA media then plated in duplicates on 96-well plates, with 50 μL of the cells then automatically injected into each of these wells via a Perkin Elmer Wallac 1420 Victor2 plate reader (Perkin Elmer, San Diego, CA, USA). The reader was used to measure luminescence response in consecutive five-second intervals (15 seconds in total). […]

[7] = system: R. prolixus; settings: peptide injection; cited from earlier work
Description: Silencing of SKs via RNAi has been linked to stimulation in the intake of food in G. bimaculatus[28] and T. castaneum. Additionally, RNAi-induced silencing of each of the transcripts for the two SKRs in T. castaneum led an increase of food intake by approximately 20% for SKR1[25] and 50% for SKR2[29]. […] In the present study, the transcript coding for Rhopr-SK-1 and Rhopr-SK-2 as well as the ...

[8] = Rhopr-SKR-1, absence of EGTA, media containing calcium
[9] = Rhopr-SKR-1, absence of U73122, media containing calcium
[10] = Rhopr-SKR-1, presence of EGTA (10 μM), calcium-free DMEM
[11] = absence of EGTA, media containing calcium
[12] = absence of U73122, media containing calcium
[13] = presence of EGTA (10 μM), calcium-free DMEM

Compound: COc1ccc2c(c1)CC[C@@H]1[C@@H]2CC[C@]2(C)[C@@H](NCCCCCCN3C(=O)C=CC3=O)CC[C@@H]12 [U73122, reference compound]
effect of U73122 on luminescence response to Rhopr-SK-1 and Rhopr-SK-2 ([1]; Rhopr-SKR-1, 10 μM): abolished the luminescence response to Rhopr-SK-1 and Rhopr-SK-2
effect of U73122 on luminescence response to Rhopr-SK-1 and Rhopr-SK-2 ([2]; 10 μM): abolished the luminescence response to Rhopr-SK-1 and Rhopr-SK-2
inhibition of PLC pathway [3]: successfully inhibit the PLC pathway

Compound: APSTMGFQGVR-NH2 [Rhopr-TK-2, R. prolixus tachykinin, control for specificity, reference compound]
luminescence response / activation (in words) [4]: little to no response
luminescence response / activation (in words) [5]: little to no response

Compound: Nc1ncnc2c1ncn2[C@@H]1O[C@H](COP(=O)(O)OP(=O)(O)OP(=O)(O)O)[C@@H](O)[C@H]1O [ATP, reference compound]
bioluminescent response of ATP, positive control ([1]; Rhopr-SKR-1, all conditions (not shown)): elicited the expected positive bioluminescent response
bioluminescent response of ATP, positive control ([2]; all conditions (not shown)): elicited the expected positive bioluminescent response

Compound: C=C[C@@]1(C)CC(=O)[C@]2(O)[C@@]3(C)[C@@H](O)CCC(C)(C)[C@@H]3[C@H](O)[C@H](OC(C)=O)[C@@]2(C)O1 [forskolin, reference compound]
luminescence response of control agents [1]: elicited luminescence responses

Compound: AKFSSWG-NH2 [Rhopr-Kinin-2, R. prolixus kinin, control for specificity, reference compound]
luminescence response / activation (in words) [4]: little to no response
luminescence response / activation (in words) [5]: little to no response

Compound: CCCC(=O)Nc1ncnc2c1ncn2[C@@H]1O[C@@H]2COP(=O)(O)O[C@H]2[C@H]1OC(=O)CCC [dibutyryl-cAMP, reference compound]
luminescence response of control agents [1]: elicited luminescence responses

Compound: O=C(O)CN(CCOCCOCCN(CC(=O)O)CC(=O)O)CC(=O)O [EGTA, ethylene glycol-bis(β-aminoethyl ether)-N,N,N′,N′-tetraacetic acid, reference compound]
effect of EGTA on luminescence induced by Rhopr-SK-1 and Rhopr-SK-2 ([1]; Rhopr-SKR-1, calcium-free media containing EGTA (10 μM)): does not abolish the luminescence induced by Rhopr-SK-1 and Rhopr-SK-2
effect of EGTA on luminescence induced by Rhopr-SK-1 and Rhopr-SK-2 ([2]; calcium-free media containing EGTA (10 μM)): does not abolish the luminescence induced by Rhopr-SK-1 and Rhopr-SK-2

Compound: GNDNFMRF-NH2 [extended Rhopr-FMRFamide, control for specificity, reference compound]
luminescence response / activation (in words) [4]: little to no response
luminescence response / activation (in words) [5]: little to no response

EC50 [4]: 0.532 nM
EC50 [5]: 0.144 nM
EC50 [1, 8]: 0.294 nM
EC50 [1, 9]: 0.317 nM
EC50 [1, 10]: 0.44 nM
EC50 [2, 11]: 0.214 nM
EC50 [2, 12]: 0.103 nM
EC50 [2, 13]: 0.344 nM
Compound: pQFNEY(SO3H)GHMRFamide [Rhopr-SK-1, native R. prolixus sulfakinin 1, custom synthesized]
potency of Rhopr-SK-1 relative to Rhopr-SK-2 [4]: one order of magnitude more potent than Rhopr-SK-2
luminescence response / activation (in words) [4]: activated by sulfated Rhopr-SK-1 and sulfated Rhopr-SK-2 in a dose-dependent manner; also recorded: full, and potent ligand
potency of Rhopr-SK-1 relative to Rhopr-SK-2 [5]: similar
luminescence response / activation (in words) [5]: activated by sulfated Rhopr-SK-1 and sulfated Rhopr-SK-2 in a dose-dependent manner; also recorded: full, and potent ligand
luminescence response ([1]; Rhopr-SKR-1): unable to elicit a response
luminescence response [2]: unable to elicit a response
luminescence in empty-vector cells [6]: no luminescence
size of blood meal [7]: took smaller blood meals

EC50 [4]: 8.69 nM
EC50 [5]: 0.101 nM
EC50 [1, 8]: 6.86 nM
EC50 [1, 9]: 13.3 nM
EC50 [1, 10]: 30.2 nM
EC50 [2, 11]: 0.134 nM
EC50 [2, 12]: 0.121 nM
EC50 [2, 13]: 0.314 nM
Compound: GGSDEKFDDY(SO3H)GYMRFamide [Rhopr-SK-2, native R. prolixus sulfakinin 2, custom synthesized]
luminescence response / activation (in words) [4]: activated by sulfated Rhopr-SK-1 and sulfated Rhopr-SK-2 in a dose-dependent manner; also recorded: partial, though potent ligand
luminescence of Rhopr-SK-2 vs Rhopr-SK-1 ([5]; 1 × 10^−6 M, one way ANOVA, Tukey, ***P < 0.001, 3 replicates): lower
luminescence response / activation (in words) [5]: activated by sulfated Rhopr-SK-1 and sulfated Rhopr-SK-2 in a dose-dependent manner; also recorded: partial, though potent ligand
luminescence response ([1]; Rhopr-SKR-1): unable to elicit a response
luminescence response [2]: unable to elicit a response
luminescence in empty-vector cells [6]: no luminescence
